# Source: ChEMBL document CHEMBL6109069 (J Med Chem, 2025)
# Activity calls are given as the source filed them. No cut-off for these calls is given here. Non-standard residues stand in square brackets, D forms with d. Residues, ends and D or L forms follow the SMILES beside them. *: point of attachment. Hexenoyl(2E,4S-Me) = CC[C@H](C)/C=C/C(=O)*; Leu(3R-OH) = CC(C)[C@@H](O)[C@H](N)C(=O)O; NH((S)CH(Me)CH2NMe2) = C[C@@H](CN(C)C)N*; NH(2-morpholinoethyl) = C(CN1CCOCC1)N*; Pro(4S-Me) = C[C@@H]1CN[C@H](C(=O)O)C1; NH(1-CH2NMe2-cBu) = CN(C)CC1(N*)CCC1; Gly(octyl) = CCCCCCCC[C@H](N)C(=O)O; Oxazole4CO(2-Me) = Cc1nc(C(=O)*)co1; Benzoyl(4-F) = O=C(c1ccc(F)cc1)*; hCha = N[C@@H](CCC1CCCCC1)C(=O)O; Tle = CC(C)(C)[C@H](N)C(=O)O; Nle = CCCC[C@H](N)C(=O)O; Hexanoyl = CCCCCC(=O)*; Aib = CC(C)(N)C(=O)O; βAla = NCCC(=O)O; tBu = CC(C)(C)*
# Assays:
# [1] = Inhibition of Bovine heart ATP synthase assessed as inhibition constant by Michaelis-Menten plot analysis; parameters: species or system Bos taurus
# [2] = system: Trypanosoma brucei rhodesiense; assay: Antitrypanosomal activity against Trypanosoma brucei rhodesiense STIB 900; assay type: functional, organism-based
# [3] = Cytotoxicity against rat L6 cells assessed as cell viability incubated for 72 hrs by CCK-8 assay
# [4] = system: Trypanosoma brucei rhodesiense; assay: Antitrypanosomal activity against Trypanosoma brucei rhodesiense STIB 900 incubated for 72 hrs by resazurin staining based analysis; assay type: functional, organism-based; details: STIB 900, 72 h
# [5] = system: Trypanosoma cruzi; assay: Antitrypanosomal activity against Trypanosoma cruzi Tulahuen C4 incubated for 4 days; assay type: functional, organism-based; details: Tulahuen C4, 96 h
# [6] = system: Leishmania donovani; assay: Antitrypanosomal activity against Leishmania donovani MHOM/ET/67/L82 incubated for 72 hrs by resazurin staining based analysis; assay type: functional, organism-based; details: MHOM/ET/67/L82, 72 h
# [7] = system: Plasmodium falciparum; assay: Antiplasmodial activity against Plasmodium falciparum NF54 incubated for 48 hrs; assay type: functional, organism-based; details: NF54, 48 h
# [8] = system: Fibroblast; assay: Reduction in respiration rate in human Fibroblast cells assessed as decrease in coupling efficiency at 50 nM incubated up to 60 mins; assay type: functional, cell-based
# [9] = system: Fibroblast; assay: Reduction in respiration rate in human Fibroblast cells assessed as decrease in coupling efficiency at > 200 nM incubated up to 60 mins; assay type: functional, cell-based
# [10] = Cytotoxicity against rat L6 cells assessed as cell viability; assay type: toxicity, cell-based
structure (smiles),measurement,setting,value
N#CC(C#N)=NNc1ccc(OC(F)(F)F)cc1,Ki,[1],Not_determined
CCCCCC(=O)N1CCC[C@H]1C(=O)N[C@@H](CCC1CCCCC1)C(=O)N[C@@H](CC(C)C)C(=O)NC(C)(C)C(=O)N[C@@H](CC(C)C)C(=O)N[C@@H](CC(C)C)C(=O)NC(C)(C)C(=O)NC(C)(C)C(=O)NCCC(=O)N[C@@H](C)CN(C)C (Hexanoyl-P[hCha]L[Aib]LL[Aib][Aib][βAla]-{NH((S)CH(Me)CH2NMe2)}),Ki,[1]; read-out: Ki,0.139 µM
CC(C)C[C@H](NC(=O)[C@H](CCC1CCCCC1)NC(=O)[C@@H]1CCCN1C(=O)c1ccc(F)cc1)C(=O)NC(C)(C)C(=O)N[C@@H](CC(C)C)C(=O)N[C@@H](CC(C)C)C(=O)NC(C)(C)C(=O)NC(C)(C)C(=O)NCCC(=O)NCCN1CCOCC1 ({Benzoyl(4-F)}-P[hCha]L[Aib]LL[Aib][Aib][βAla]-{NH(2-morpholinoethyl)}),Ki,[1]; read-out: Ki,0.703 µM
same,IC50,[2],0.072 µM
CC(C)C[C@H](NC(=O)[C@H](CC(C)C)NC(=O)C(C)(C)NC(=O)[C@@H](NC(=O)[C@H](CCC1CCCCC1)NC(=O)[C@@H]1CCCN1C(=O)c1ccc(F)cc1)[C@H](O)C(C)C)C(=O)NC(C)(C)C(=O)NC(C)(C)C(=O)NCCC(=O)N[C@@H](C)CN(C)C ({Benzoyl(4-F)}-P[hCha][Leu(3R-OH)][Aib]LL[Aib][Aib][βAla]-{NH((S)CH(Me)CH2NMe2)}),Ki,[1]; read-out: Ki,0.134 µM
same,IC50 at 72 h,[3],1.23 µM
same,IC50,[4],0.0013 µM
same,IC50,[5],1.13 µM
same,IC50,[6],0.0067 µM
same,IC50,[7],0.003 µM
CC(C)C[C@H](NC(=O)[C@H](CCC1CCCCC1)NC(=O)[C@@H]1C[C@H](C)CN1C(=O)c1ccc(F)cc1)C(=O)NC(C)(C)C(=O)N[C@@H](CC(C)C)C(=O)N[C@@H](CC(C)C)C(=O)NC(C)(C)C(=O)NC(C)(C)C(=O)NCCC(=O)N[C@@H](C)CN(C)C ({Benzoyl(4-F)}-[Pro(4S-Me)][hCha]L[Aib]LL[Aib][Aib][βAla]-{NH((S)CH(Me)CH2NMe2)}),Ki,[1]; read-out: Ki,0.084 µM
same,IC50 at 72 h,[3],0.266 µM
same,IC50,[4],0.0003 µM
same,IC50,[5],0.0039 µM
same,IC50,[6],0.00034 µM
same,IC50,[7],0.0013 µM
same,Activity,[8],Active
same,Activity,[9],Active
CC(C)C[C@H](NC(=O)[C@H](CC(C)C)NC(=O)C(C)(C)NC(=O)[C@@H](NC(=O)[C@H](CCC1CCCCC1)NC(=O)[C@@H]1C[C@H](C)CN1C(=O)c1ccc(F)cc1)[C@H](O)C(C)C)C(=O)NC(C)(C)C(=O)NC(C)(C)C(=O)NCCC(=O)N[C@@H](C)CN(C)C ({Benzoyl(4-F)}-[Pro(4S-Me)][hCha][Leu(3R-OH)][Aib]LL[Aib][Aib][βAla]-{NH((S)CH(Me)CH2NMe2)}),Ki,[1]; read-out: Ki,0.055 µM
same,IC50 at 72 h,[3],1.34 µM
same,IC50,[4],0.00063 µM
same,IC50,[5],0.423 µM
same,IC50,[6],0.01 µM
same,IC50,[7],0.0034 µM
same,Activity,[8],Active
same,Activity,[9],Active
"CC[C@H](C)/C=C/C(=O)N1CCC[C@H]1C(=O)N[C@@H](CCC1CCCCC1)C(=O)N[C@H](C(=O)NC(C)(C)C(=O)N[C@@H](CC(C)C)C(=O)N[C@@H](CC(C)C)C(=O)NC(C)(C)C(=O)NC(C)(C)C(=O)NCCC(=O)N[C@@H](C)CN(C)C)[C@H](O)C(C)C ({Hexenoyl(2E,4S-Me)}-P[hCha][Leu(3R-OH)][Aib]LL[Aib][Aib][βAla]-{NH((S)CH(Me)CH2NMe2)})",Ki,[1]; read-out: Ki,0.029 µM
same,IC50 at 72 h,[3],0.208 µM
same,IC50,[4],0.00056 µM
same,IC50,[5],0.18 µM
same,IC50,[6],0.00053 µM
same,IC50,[7],0.00052 µM
"CCCCCCCC[C@H](NC(=O)[C@@H]1C[C@H](C)CN1C(=O)/C=C/[C@@H](C)CC)C(=O)N[C@H](C(=O)NC(C)(C)C(=O)N[C@@H](CC(C)C)C(=O)N[C@@H](CC(C)C)C(=O)NC(C)(C)C(=O)NC(C)(C)C(=O)NCCC(=O)N[C@@H](C)CN(C)C)[C@H](O)C(C)C ({Hexenoyl(2E,4S-Me)}-[Pro(4S-Me)][Gly(octyl)][Leu(3R-OH)][Aib]LL[Aib][Aib][βAla]-{NH((S)CH(Me)CH2NMe2)})",Ki,[1]; read-out: Ki,0.053 µM
same,IC50 at 72 h,[3],0.077 µM
same,IC50,[4],0.00034 µM
same,IC50,[5],0.024 µM
same,IC50,[6],0.00069 µM
same,IC50,[7],0.00034 µM
"CC[C@H](C)/C=C/C(=O)N1C[C@@H](C)C[C@H]1C(=O)N[C@@H](CCC1CCCCC1)C(=O)N[C@@H](CC(C)C)C(=O)NC(C)(C)C(=O)N[C@@H](CC(C)C)C(=O)N[C@@H](CC(C)C)C(=O)NC(C)(C)C(=O)NC(C)(C)C(=O)NCCC(=O)N[C@@H](C)CN(C)C ({Hexenoyl(2E,4S-Me)}-[Pro(4S-Me)][hCha]L[Aib]LL[Aib][Aib][βAla]-{NH((S)CH(Me)CH2NMe2)})",Ki,[1]; read-out: Ki,0.107 µM
same,IC50 at 72 h,[3],0.157 µM
same,IC50,[4],0.00026 µM
same,IC50,[5],0.043 µM
same,IC50,[6],0.0013 µM
same,IC50,[7],0.00069 µM
same,Activity,[9],Active
Cc1nc(C(=O)N2CCC[C@H]2C(=O)N[C@@H](COC(C)(C)C)C(=O)N[C@@H](CC(C)C)C(=O)NC(C)(C)C(=O)N[C@@H](CC(C)C)C(=O)N[C@@H](CC(C)C)C(=O)NC(C)(C)C(=O)NC(C)(C)C(=O)NCCC(=O)NC2(CN(C)C)CCC2)co1 ({Oxazole4CO(2-Me)}-PS(tBu)L[Aib]LL[Aib][Aib][βAla]-{NH(1-CH2NMe2-cBu)}),Ki,[1]; read-out: Ki,18.1 µM
same,IC50,[5],6.41 µM
same,IC50,[6],0.166 µM
same,IC50,[7],0.272 µM
same,IC50,[2],0.0039 µM
same,IC50,[10],> 8.75 µM
Cc1nc(C(=O)N2CCC[C@H]2C(=O)N[C@@H](Cc2c[nH]c3ccccc23)C(=O)N[C@@H](CC(C)C)C(=O)NC(C)(C)C(=O)N[C@@H](CC(C)C)C(=O)N[C@@H](CC(C)C)C(=O)NC(C)(C)C(=O)NC(C)(C)C(=O)NCCC(=O)NC2(CN(C)C)CCC2)co1 ({Oxazole4CO(2-Me)}-PWL[Aib]LL[Aib][Aib][βAla]-{NH(1-CH2NMe2-cBu)}),IC50,[5],2.7 µM
same,IC50,[6],0.031 µM
same,IC50,[7],0.018 µM
same,IC50,[2],0.0013 µM
CCCC[C@H](NC(=O)[C@@H]1CCCN1C(=O)c1coc(C)n1)C(=O)N[C@@H](CC(C)C)C(=O)NC(C)(C)C(=O)N[C@@H](CC(C)C)C(=O)N[C@@H](CC(C)C)C(=O)NC(C)(C)C(=O)NC(C)(C)C(=O)NCCC(=O)NC1(CN(C)C)CCC1 ({Oxazole4CO(2-Me)}-P[Nle]L[Aib]LL[Aib][Aib][βAla]-{NH(1-CH2NMe2-cBu)}),IC50,[5],5.91 µM
same,IC50,[6],1.53 µM
same,IC50,[7],0.118 µM
same,IC50,[2],0.0065 µM
same,IC50,[10],> 8.75 µM
Cc1nc(C(=O)N2CCC[C@H]2C(=O)N[C@H](C(=O)N[C@@H](CC(C)C)C(=O)NC(C)(C)C(=O)N[C@@H](CC(C)C)C(=O)N[C@@H](CC(C)C)C(=O)NC(C)(C)C(=O)NC(C)(C)C(=O)NCCC(=O)NC2(CN(C)C)CCC2)C(C)(C)C)co1 ({Oxazole4CO(2-Me)}-P[Tle]L[Aib]LL[Aib][Aib][βAla]-{NH(1-CH2NMe2-cBu)}),Ki,[1]; read-out: Ki,16.2 µM
same,IC50,[5],6.52 µM
same,IC50,[6],1.19 µM
same,IC50,[7],0.212 µM
same,IC50,[2],0.0041 µM
same,IC50,[10],> 8.98 µM
Cc1nc(C(=O)N2CCC[C@H]2C(=O)N[C@@H](CCC2CCCCC2)C(=O)N[C@@H](CC(C)C)C(=O)NC(C)(C)C(=O)N[C@@H](CC(C)C)C(=O)N[C@@H](CC(C)C)C(=O)NC(C)(C)C(=O)NC(C)(C)C(=O)NCCC(=O)NC2(CN(C)C)CCC2)co1 ({Oxazole4CO(2-Me)}-P[hCha]L[Aib]LL[Aib][Aib][βAla]-{NH(1-CH2NMe2-cBu)}),IC50,[5],0.193 µM
same,IC50,[6],0.011 µM
same,IC50,[7],0.0048 µM
same,IC50,[2],0.00076 µM
